Source: patent publication US20250129018A1, “PLEUROMUTILIN DERIVATIVES CONTAINING CYCLOALKYL GROUP AND PREPARATION METHODS AND APPLICATIONS THEREOF” (priority 2023, published 2025)

Assays:
[1] = tested on: MRSA-337371; assay: MIC, two-fold serial dilution method; format: cell-based, Methicillin-resistant Staphylococcus aureus; conditions: MRSA-337371
Experimental: (§1) The pleuromutilin derivatives 1-4 prepared from Example 9 of the present disclosure were determined for their effect on Methicillin-resistant Staphylococcus aureus, Methicillin-resistant Staphylococcus epidermidis, standard strains of Staphylococcus aureus (S. aureus-29213 and S. aureus-25923), clinical strains 1-48 of S. aureus, Escherichia coli, S. agalactiae and S. dysgalactiae equisimilis (S. dysgalactiae-1, S. dysgalactiae-2, S. dysgalactiae-3) and minimum inhibitory concentration (MIC) using a two-fold serial dilution method, and the results were shown in Table 1, Table 2 and Table 3. The standard strains are commercially available from ATCC, and the clinical strains are preserved by Lanzhou Institute of Husbandry and Pharmaceutical Science of Chinese Academy of Agricultural Sciences (Lanzhou, Gansu, China).

[2] = tested on: MRSE; assay: MIC, two-fold serial dilution method; format: cell-based, Methicillin-resistant Staphylococcus epidermidis
Experimental: as §1

[3] = tested on: S. aureus-25923; assay: MIC, two-fold serial dilution method; format: cell-based, Staphylococcus aureus; conditions: S. aureus-25923
Experimental: as §1

[4] = tested on: S. aureus-29213; assay: MIC, two-fold serial dilution method; format: cell-based, Staphylococcus aureus; conditions: S. aureus-29213
Experimental: as §1

[5] = tested on: E. coli-25922; assay: MIC, two-fold serial dilution method; format: cell-based, Escherichia coli; conditions: E. coli-25922
Experimental: as §1

[6] = tested on: S. agalactiae-1; assay: MIC, two-fold serial dilution method; format: cell-based; conditions: S. agalactiae-1
Experimental: as §1

[7] = tested on: S. aureus-10; assay: MIC, clinical strain; format: cell-based, Staphylococcus aureus
Experimental: as §1

[8] = tested on: S. aureus-11; assay: MIC, clinical strain; format: cell-based, Staphylococcus aureus
Experimental: as §1

[9] = tested on: S. aureus-13; assay: MIC, clinical strain; format: cell-based, Staphylococcus aureus; conditions: in µg/mL
Experimental: as §1

[10] = tested on: S. aureus-14; assay: MIC, clinical strain; format: cell-based, Staphylococcus aureus
Experimental: as §1

[11] = tested on: S. aureus-15; assay: MIC, clinical strain; format: cell-based, Staphylococcus aureus; conditions: in µg/mL
Experimental: as §1

[12] = tested on: S. aureus-17; assay: MIC, clinical strain; format: cell-based, Staphylococcus aureus
Experimental: as §1

[13] = tested on: S. aureus-18; assay: MIC, clinical strain; format: cell-based, Staphylococcus aureus
Experimental: as §1

[14] = tested on: S. aureus-19; assay: MIC, clinical strain; format: cell-based, Staphylococcus aureus
Experimental: as §1

[15] = tested on: S. aureus-1; assay: MIC, clinical strain; format: cell-based, Staphylococcus aureus; conditions: in µg/mL
Experimental: as §1

[16] = tested on: S. aureus-21; assay: MIC, clinical strain; format: cell-based, Staphylococcus aureus; conditions: in µg/mL
Experimental: as §1

[17] = tested on: S. aureus-22; assay: MIC, clinical strain; format: cell-based, Staphylococcus aureus; conditions: in µg/mL
Experimental: as §1

[18] = tested on: S. aureus-23; assay: MIC, clinical strain; format: cell-based, Staphylococcus aureus
Experimental: as §1

[19] = tested on: S. aureus-25; assay: MIC, clinical strain; format: cell-based, Staphylococcus aureus
Experimental: as §1

[20] = tested on: S. aureus-26; assay: MIC, clinical strain; format: cell-based, Staphylococcus aureus
Experimental: as §1

[21] = tested on: S. aureus-27; assay: MIC, clinical strain; format: cell-based, Staphylococcus aureus
Experimental: as §1

[22] = tested on: S. aureus-29; assay: MIC, clinical strain; format: cell-based, Staphylococcus aureus
Experimental: as §1

[23] = tested on: S. aureus-2; assay: MIC, clinical strain; format: cell-based, Staphylococcus aureus
Experimental: as §1

[24] = tested on: S. aureus-30; assay: MIC, clinical strain; format: cell-based, Staphylococcus aureus
Experimental: as §1

[25] = tested on: S. aureus-31; assay: MIC, clinical strain; format: cell-based, Staphylococcus aureus
Experimental: as §1

[26] = tested on: S. aureus-32; assay: MIC, clinical strain; format: cell-based, Staphylococcus aureus
Experimental: as §1

[27] = tested on: S. aureus-33; assay: MIC, clinical strain; format: cell-based, Staphylococcus aureus
Experimental: as §1

[28] = tested on: S. aureus-34; assay: MIC, clinical strain; format: cell-based, Staphylococcus aureus
Experimental: as §1

[29] = tested on: S. aureus-35; assay: MIC, clinical strain; format: cell-based, Staphylococcus aureus
Experimental: as §1

[30] = tested on: S. aureus-3; assay: MIC, clinical strain; format: cell-based, Staphylococcus aureus
Experimental: as §1

[31] = tested on: S. aureus-40; assay: MIC, clinical strain; format: cell-based, Staphylococcus aureus
Experimental: as §1

[32] = tested on: S. aureus-41; assay: MIC, clinical strain; format: cell-based, Staphylococcus aureus
Experimental: as §1

[33] = tested on: S. aureus-42; assay: MIC, clinical strain; format: cell-based, Staphylococcus aureus
Experimental: as §1

[34] = tested on: S. aureus-46; assay: MIC, clinical strain; format: cell-based, Staphylococcus aureus
Experimental: as §1

[35] = tested on: S. aureus-48; assay: MIC, clinical strain; format: cell-based, Staphylococcus aureus
Experimental: as §1

[36] = tested on: S. aureus-4; assay: MIC, clinical strain; format: cell-based, Staphylococcus aureus
Experimental: as §1

[37] = tested on: S. aureus-5; assay: MIC, clinical strain; format: cell-based, Staphylococcus aureus
Experimental: as §1

[38] = tested on: S. aureus-6; assay: MIC, clinical strain; format: cell-based, Staphylococcus aureus
Experimental: as §1

[39] = tested on: S. aureus-7; assay: MIC, clinical strain; format: cell-based, Staphylococcus aureus
Experimental: as §1

[40] = tested on: S. aureus-8; assay: MIC, clinical strain; format: cell-based, Staphylococcus aureus
Experimental: as §1

[41] = tested on: S. aureus-9; assay: MIC, clinical strain; format: cell-based, Staphylococcus aureus
Experimental: as §1

C=CC1(C)CC(OC(=O)CSC(C)(C)CNC(=O)C2CCC2)C2(C)C(C)CCC3(CCC(=O)C32)C(C)C1O (centres unmarked) [derivative 2]
>16 µg/mL: minimum inhibitory concentration [5]
0.031 µg/mL: minimum inhibitory concentration [1] | minimum inhibitory concentration [2] | minimum inhibitory concentration [3] | minimum inhibitory concentration [6]
0.063: in vitro minimum inhibitory concentration [7] | in vitro minimum inhibitory concentration [8] | in vitro minimum inhibitory concentration [10] | in vitro minimum inhibitory concentration [12] | in vitro minimum inhibitory concentration [16] | in vitro minimum inhibitory concentration [17] | in vitro minimum inhibitory concentration [18] | in vitro minimum inhibitory concentration [19] | in vitro minimum inhibitory concentration [20] | in vitro minimum inhibitory concentration [23] | in vitro minimum inhibitory concentration [26] | in vitro minimum inhibitory concentration [28] | in vitro minimum inhibitory concentration [33] | in vitro minimum inhibitory concentration [34] | in vitro minimum inhibitory concentration [35] | in vitro minimum inhibitory concentration [36] | in vitro minimum inhibitory concentration [39] | in vitro minimum inhibitory concentration [40] | in vitro minimum inhibitory concentration [41]
0.016: in vitro minimum inhibitory concentration [31]
0.125: in vitro minimum inhibitory concentration [14] | in vitro minimum inhibitory concentration [15] | in vitro minimum inhibitory concentration [29]
0.063 µg/mL: minimum inhibitory concentration [4]
0.031: in vitro minimum inhibitory concentration [9] | in vitro minimum inhibitory concentration [11] | in vitro minimum inhibitory concentration [13] | in vitro minimum inhibitory concentration [21] | in vitro minimum inhibitory concentration [22] | in vitro minimum inhibitory concentration [24] | in vitro minimum inhibitory concentration [25] | in vitro minimum inhibitory concentration [27] | in vitro minimum inhibitory concentration [30] | in vitro minimum inhibitory concentration [32] | in vitro minimum inhibitory concentration [37] | in vitro minimum inhibitory concentration [38]
